In US10420815B2, “Combinational therapy for synergistic inhibition of gram-positive and gram-negative bacteria” (priority 2015, dated 2019):
Read-outs that look alike come from different tables or passages of the source. Bridge positions count the residues as written; N and C are the ends. Square brackets hold non-standard residues; d marks the D form. Peptide text beside a SMILES is read from it. * marks the point of attachment. Ileψ(thiazoline)Cys = CC[C@H](C)[C@H](N)C1=N[C@H](C(=O)*)CS1; dOrn = NCCC[C@@H](N)C(=O)O

Assays:
MRSA (ATCC 33593) = experiment: microbe, parasite or virus in culture; format: cell-based, Staphylococcus aureus; settings: MRSA; for MIC: antioxidant alone
Source text: (§1) MRSA (ATCC 33593), MSSA (ATCC 29213), and MRSA USA300 (BAA-1680) strains were purchased from the American Type Culture Collection (ATCC; Manassas, Va.). Eight clinical isolates of MRSA were obtained from the Culture Collection of Antimicrobial Resistant Microbes, Korea National Research Resource Center (KNRRC). Salmonella enterica Typhimurium LT2 was purchased from ATCC, and Escherichia coli O157:H7 is a kind gift from Dr. Sangryeol Ryu (Seoul National University, South Korea). All S. aureus strains were maintained in Trypticase Soy (TS) medium, and E. coli O157:H7 and Salmonella were routinely grown aerobically on Luria-Bertani (LB) media at 37° C. For measuring growth kinetics, an overnight culture of MRSA in Mueller-Hinton (MH) broth was diluted 100-fold in fresh MH broth and cultured until early exponential phase. The culture (200 μl) was transferred to each well of a sterile 96-well plate and incubated at 37° C. with bacitracin alone, alkyl gallate alone, and combination of bacitracin/alkyl gallates at various concentrations. The optical density at 600 nm (OD600) was measured every hour with FLUOstar® Omega (BMG Labtech, Germany).
(§2) Broth micro dilution assays were performed to determine the minimum inhibitory concentrations (MIC) accordance to the M7-A7 protocol of the Clinical and Laboratory Standards Institute (CLSI) guidelines^28. The susceptibility test was carried out with an initial bacterial inoculum of 1.5×10^5 CFU ml^−1. Alkyl gallates and bacitracin were serially diluted in a polystyrene 96 well plate and the plate was incubated at 37° C. for 24 h. Minimum bactericidal concentration (MBC) was determined by spotting 10 μl of cultures from MIC tests onto MH agar and incubated aerobically at 37° C.
(§3) MICs were determined with MRSA and methicillin-sensitive S. aureus (MSSA) using a broth dilution method as described above.
(§4) MRSA and MSSA were cultured overnight with antioxidants (0.5 μg/ml) and bacitracin at various concentrations and 10 μL of the culture was spotted on MH agar plates and incubated aerobically at 37° C. to observe the bacterial viability. The results in FIGS. 9A, 9B, 9C and 9D (photographs of plates) show the Minimal Bactericidal Concentrations (MBCs) for indicated antioxidants. Bacitracin killed MRSA and MSSA at concentrations greater than or equal to 2 μg/mi.

[1] = tested on: MRSA (normal MRSA strain, not USA300); experiment: MRSA growth (optical density) with bacitracin and phenolic antioxidants; format: cell-based, Staphylococcus aureus
Source text: as §1
MRSA were grown with bacitracin (0.002 μg/mL) with antioxidant (as shown) at 0.5 μg/mL.
FIG. 7A is growth with no added bacitracin or lauryl gallate.
The optical density of MRSA was measured after 18 h culture with bacitracin (0.002 μg/ml) and antioxidants (as indicated at 0.5 μg/ml). Also measured were controls with no additions, with bacitracin alone and with antioxidant alone. FIGS. 8A, 8B, 8C and 8D are graphs illustrating the results.

USA300 = experiment: Bacterial membrane permeability (propidium iodide fluorescence); format: cell-based, Staphylococcus aureus; settings: agent alone, sub-MIC levels, EDTA 1 mM
Protocol: Membrane permeability was determined by measuring fluorescence after exposure of USA300 to propidium iodide as described previously^29. Briefly, USA300 was grown in MH broth to the exponential phase and then diluted to OD600≈0.25. Propidium iodide was mixed with bacteria to a final concentration of 10 μM. […] Fluorescence was monitored at excitation and emission wavelengths of 585 nm and 620 nm, respectively, for 1 h using FLUOstar Omega® (BMG Labtech, Germany). The membrane permeability was calculated by subtracting fluorescence intensity of controls without treatment with phenolic compounds from that of treated samples. EDTA (1 mM) was used as a positive control.

Escherichia coli O157:H7 = experiment: microbe, parasite or virus in culture; format: cell-based; settings: E. coli O157:H7; agent alone
Source text: as §1, §2
MIC and MBC were measured as described above. MIC and MBC data are shown in Table 5 for both the Salmonella and the E. coli strain tested. The tested strains were highly resistant to bacitracin.

MRSA USA300 (BAA-1680) [2] = experiment: Growth kinetics (OD600) with bacitracin, alkyl gallates and combinations; format: cell-based, Staphylococcus aureus; settings: for growth inhibition by bacitracin in combination with alkyl gallate: bacitracin 0.001 U to 100 U
Source text: as §1

MSSA (ATCC 29213) = experiment: MIC (broth dilution) and MBC (spotting) of phenolic antioxidants and bacitracin; format: cell-based, Staphylococcus aureus; settings: for MIC: antioxidant alone
Source text: as §1, §2, §3, §4

MRSA 3823 = experiment: microbe, parasite or virus in culture; format: cell-based, Staphylococcus aureus; settings: MRSA 3823 (human/nose)
Source text: as §1, §2

MRSA 3865 = experiment: microbe, parasite or virus in culture; format: cell-based, Staphylococcus aureus; settings: MRSA 3865 (human/skin)
Source text: as §1, §2

MRSA 3795 = experiment: microbe, parasite or virus in culture; format: cell-based, Staphylococcus aureus; settings: MRSA 3795 (human/nose)
Source text: as §1, §2

MRSA 3A585 = experiment: microbe, parasite or virus in culture; format: cell-based, Staphylococcus aureus; settings: MRSA 3A585 (human/blood)
Source text: as §1, §2

MRSA 3876 = experiment: microbe, parasite or virus in culture; format: cell-based, Staphylococcus aureus; settings: MRSA 3876 (human/skin)
Source text: as §1, §2

MRSA 3903 = experiment: microbe, parasite or virus in culture; format: cell-based, Staphylococcus aureus; settings: MRSA 3903 (human/skin)
Source text: as §1, §2

MRSA 3095 = experiment: microbe, parasite or virus in culture; format: cell-based, Staphylococcus aureus; settings: MRSA 3095 (human/skin)
Source text: as §1, §2

MRSA 3799 = experiment: microbe, parasite or virus in culture; format: cell-based, Staphylococcus aureus; settings: MRSA 3799 (human/nose)
Source text: as §1, §2

MRSA USA300 (BAA-1680) [3] = experiment: microbe, parasite or virus in culture; format: cell-based, Staphylococcus aureus; settings: for bactericidal activity in combination with bacitracin: FIG. 2
Source text: as §1, §2

[4] = Staphylococcus aureus, read-out: MIC
[5] = Staphylococcus aureus, 24 h, agent alone, read-out: MIC
[6] = Staphylococcus aureus, agent alone, read-out: MBC
[7] = antioxidant 0.5 μg/ml, compared to bacitracin alone

MIC (MRSA USA300 (BAA-1680) [3]; agent alone) [µg/mL]	MIC (MRSA 3823; [4]) [µg/mL]	MIC (MRSA 3865; [4]) [µg/mL]	MIC (MRSA 3795; [4]) [µg/mL]	MIC (MRSA 3A585; [4]) [µg/mL]	MIC (MRSA 3876; [4]) [µg/mL]	MIC (MRSA 3903; [4]) [µg/mL]	MIC (MRSA 3095; [4]) [µg/mL]	MIC (MRSA 3799; [4]) [µg/mL]	SMILES	MBC (MRSA USA300 (BAA-1680) [3]; agent alone) [µg/mL]	growth inhibition by bacitracin in combination with alkyl gallate (MRSA USA300 (BAA-1680) [2])	further results
	512	512	512	512	512	512	512	512	CCCCOC(=O)c1cc(O)c(O)c(O)c1 [Butyl gallate (BG), Butyl gallate]		significant growth inhibition	bactericidal activity in combination with bacitracin (MRSA USA300 (BAA-1680) [3]): synergistic antimicrobial activity; MIC (MRSA USA300 (BAA-1680) [3]; [5]): 512 µg/mL; MBC (MRSA USA300 (BAA-1680) [3]; [6]): 1020 µg/mL
									O=C(O)CN(CCN(CC(=O)O)CC(=O)O)CC(=O)O [EDTA, reference compound]			membrane permeability (USA300): significantly increased membrane permeability
128	> 1020	> 1020	> 1020	> 1020	> 1020	> 1020	> 1020	> 1020	CCOC(=O)c1cc(O)c(O)c(O)c1 [Ethyl gallate (EG), ethyl gallate]	256	significant growth inhibition	
128	> 1020	> 1020	> 1020	> 1020	> 1020	> 1020	> 1020	> 1020	COC(=O)c1cc(O)c(O)c(O)c1 [Methyl gallate (MG), methyl gallate]	256	significant growth inhibition	
128	512	> 1020	512	> 1020	> 1020	> 1020	> 1020	512	CCCOC(=O)c1cc(O)c(O)c(O)c1 [Propyl gallate, propyl gallate]	256		fold decrease of bacitracin MBC by antioxidant (MRSA (ATCC 33593); [7]): 8 fold; MIC (MRSA (ATCC 33593)): 512 mg/L; MIC (MRSA (ATCC 33593); [4]): 256 mg/L; growth of MRSA with bacitracin plus antioxidant ([1]; bacitracin 0.002 μg/mL, antioxidant 0.5 μg/mL, FIG. 6): significantly inhibited the growth of MRSA; MIC (MSSA (ATCC 29213); [4]): 128 µg/mL; fold decrease of bacitracin MBC by antioxidant (MSSA (ATCC 29213); [7]): 16 fold; MIC (MSSA (ATCC 29213)): 64 µg/mL
	> 1020	> 1020	> 1020	> 1020	> 1020	> 1020	> 1020	> 1020	CCCCCCCCCCCCCCCCCCOC(=O)c1cc(O)c(O)c(O)c1 [Stearyl gallate (SG), stearyl gallate]		completely inhibited the growth of USA300	bactericidal activity in combination with bacitracin (MRSA USA300 (BAA-1680) [3]): killing effect was not as significant as OG, LG, and BG; MIC (MRSA USA300 (BAA-1680) [3]; [5]): 1020 µg/mL; MBC (MRSA USA300 (BAA-1680) [3]; [6]): 2050 µg/mL

SMILES	MIC (MRSA USA300 (BAA-1680) [3]; agent alone) [µg/mL]	MIC (MRSA 3823; [4]) [µg/mL]	MIC (MRSA 3865; [4]) [µg/mL]	MIC (MRSA 3795; [4]) [µg/mL]	MIC (MRSA 3A585; [4]) [µg/mL]	MIC (MRSA 3876; [4]) [µg/mL]	MIC (MRSA 3903; [4]) [µg/mL]	MIC (MRSA 3095; [4]) [µg/mL]	MIC (MRSA 3799; [4]) [µg/mL]	MBC (MRSA USA300 (BAA-1680) [3]; agent alone) [µg/mL]	growth inhibition by bacitracin in combination with alkyl gallate (MRSA USA300 (BAA-1680) [2])	further results
CC[C@H](C)[C@H](N)C1=N[C@H](C(=O)N[C@@H](CC(C)C)C(=O)N[C@H](CCC(=O)O)C(=O)N[C@H](C(=O)N[C@H]2CCCCNC(=O)[C@H](CC(N)=O)NC(=O)[C@@H](CC(=O)O)NC(=O)[C@H](Cc3cnc[nH]3)NC(=O)[C@@H](Cc3ccccc3)NC(=O)[C@H]([C@@H](C)CC)NC(=O)[C@@H](CCCN)NC2=O)[C@@H](C)CC)CS1 [Bacitracin, reference compound] ({Ileψ(thiazoline)Cys}-L[dE]IK[dOrn]I[dF]H[dD]N; lactam 4-C)	1024									2048		bacitracin MIC for MRSA (MRSA (ATCC 33593); bacitracin alone): 2 µg/mL; concentration of bacitracin alone that killed (MBC) (MRSA (ATCC 33593); bacitracin alone): greater than or equal to 2 μg/mi; MRSA growth inhibition by bacitracin alone ([1]; bacitracin 0.0019 μg/mL to 1 μg/mL, FIG. 7B): did not inhibit MRSA; membrane permeability (USA300): did not affect membrane permeability; MBC (Escherichia coli O157:H7): >1024 µg/mL; MIC (Escherichia coli O157:H7): >1024 µg/mL; growth inhibition by bacitracin only (MRSA USA300 (BAA-1680) [2]; up to 100 U bacitracin, without alkyl gallates): did not inhibit USA300; concentration of bacitracin alone that killed (MBC) (MSSA (ATCC 29213); bacitracin alone): greater than or equal to 2 μg/mi; MIC (MRSA 3823): 64 µg/mL; MIC (MRSA 3865): 128 µg/mL; MIC (MRSA 3795): 8 µg/mL; MIC (MRSA 3A585): 128 µg/mL; MIC (MRSA 3876): 128 µg/mL; MIC (MRSA 3903): 32 µg/mL; MIC (MRSA 3095): 128 µg/mL; MIC (MRSA 3799): 128 µg/mL; MBC (MRSA USA300 (BAA-1680) [3]; bacitracin alone, in units): 200 U; MIC (MRSA USA300 (BAA-1680) [3]; bacitracin alone, in units): 100 U
